This is an account of results in ChEMBL document CHEMBL1137753, “Insecticidal heterolignans--tubuline polymerization inhibitors with activity against chewing pests” (Bioorg Med Chem, 2009).

Active and inactive are the calls of the source.

Experiment [1] has as its system Spodoptera frugiperda. Description: Insecticidal activity against Spodoptera frugiperda larvae in disk of maize leaf treated as spray. It counts as functional, organism-based.
The test system of experiment [2] is Phaedon cochleariae. As to the kind of experiment: Insecticidal activity against Phaedon cochleariae larvae in disk of Chinese cabbage leaf treated as spray. It counts as functional, organism-based.

Regarding `CCN1C2=C(C(=O)OC2)C(c2cc(OC)cc(OC)c2)c2cc(OC)c(OC)cc21` (centres undefined), the result in experiment [1] and in experiment [2] was inactive.
`COc1cc(OC)cc(C2C3=C(COC3=O)Nc3cc(O)ccc32)c1` (centres undefined): the outcome in experiment [1] and in experiment [2] was inactive.
`COc1cc(C2C3=C(COC3=O)Nc3cc(Cl)ccc32)cc(OC)c1OC` (centres undefined): the result in experiment [1] and in experiment [2] was inactive.
Regarding `O=C1OCC2=C1C(c1cccc(Cl)c1Cl)c1cc3c(cc1N2)OCO3` (centres undefined), the result in experiment [1] and in experiment [2] was inactive.
As to `COc1cc(OC)cc(C2C3=C(COC3=O)Nc3cc(OC(F)(F)F)ccc32)c1` (centres undefined), the outcome in experiment [1] and in experiment [2] was inactive.
Turning to `COc1cc(OC)cc(C2C3=C(COC3=O)Nc3cc(OCc4ccccc4)ccc32)c1` (centres undefined), the outcome in experiment [1] and in experiment [2] was inactive.
As to `O=C1OCC2=C1C(c1cc(Cl)cc(Cl)c1Cl)c1cc3c(cc1N2)OCO3` (centres undefined), the result in experiment [1] and in experiment [2] was inactive.
For the compound `Clc1cccc(C2C3=C(CCC3)Nc3cc4c(cc32)OCO4)c1` (centres undefined), the outcome in experiment [1] and in experiment [2] was inactive.
`COc1cc(OC)cc(C2C3=C(COC3=O)Nc3cc(C)c(C)cc32)c1` (centres undefined): the outcome in experiment [1] and in experiment [2] was inactive.
`COc1cc(OC)cc(C2C3=C(COC3=O)Nc3cc(C(C)(C)C)ccc32)c1` (centres undefined): the outcome in experiment [1] and in experiment [2] was inactive.
In the case of `COc1cc(OC)cc(C2C3=C(COC3=O)Nc3c(C)cc(C)cc32)c1` (centres undefined), the result in experiment [1] and in experiment [2] was inactive.
Consider `O=C1OCC2=C1C(c1cccc(Br)c1)c1cc3c(cc1O2)OCO3` (centres undefined), for which the outcome in experiment [1] and in experiment [2] was inactive.
On to `O=C1CCCC2=C1C(c1cccc(Cl)c1)c1cc3c(cc1N2)OCO3` (centres undefined), for which the result in experiment [1] and in experiment [2] was inactive.
As to `COc1cc(OC)cc(C2C3=C(Nc4cc5c(cc42)OCO5)C(C)(C)COS3(=O)=O)c1` (centres undefined), the outcome in experiment [1] and in experiment [2] was inactive.
As to `COc1cc(OC)cc(C2C3=C(COC3=O)Oc3cc(OC)ccc32)c1` (centres undefined), the result in experiment [1] and in experiment [2] was inactive.
Turning to `COc1cc(OC)cc(C2C3=C(COC3=O)Oc3c2ccc(OC)c3OC)c1` (centres undefined), the outcome in experiment [1] and in experiment [2] was inactive.
Turning to `CC(C)(C)OC(=O)N1CC2=C(C1=O)C(c1cccc(Cl)c1)c1cc3c(cc1N2)OCO3` (centres undefined), the outcome in experiment [1] was inactive.
For `COc1cc(OC)cc(C2C3=C(COC3=O)Nc3c(OC)ccc(OC)c32)c1` (centres undefined), the result in experiment [1] and in experiment [2] was inactive.
With `CC1(c2cccc(Cl)c2)C2=C(COC2=O)Nc2ccc(Cl)cc21` (centres undefined), the outcome in experiment [1] and in experiment [2] was inactive.
In the case of `O=C1C2=C(C(=O)C1c1ccccc1)C(c1cccc(Cl)c1)c1cc3c(cc1N2)OCO3` (centres undefined), the result in experiment [1] and in experiment [2] was inactive.
Take `Cc1ccc2c(c1)N(C)C1=C(C(=O)OC1)C2c1ccc(Cl)cc1` (centres undefined): the outcome in experiment [1] and in experiment [2] was inactive.
Regarding `CCOc1cc2c(cc1OCC)C(c1cc(OC)cc(OC)c1)C1=C(COC1=O)N2` (centres undefined), the outcome in experiment [1] and in experiment [2] was inactive.
In the case of `COc1cc(OC)cc(C2C3=C(COC3=O)Nc3cc(-c4ccccc4)ccc32)c1` (centres undefined), the outcome in experiment [1] and in experiment [2] was inactive.
`COc1cc2c(cc1OC)C(c1cc(OC)c(OC)c(OC)c1)C1=C(O)OCC1=N2` (centres undefined): the outcome in experiment [1] and in experiment [2] was inactive.
Turning to `O=S1(=O)CCCC2=C1C(c1cccc(Cl)c1)c1cc3c(cc1N2)OCO3` (centres undefined), the outcome in experiment [1] and in experiment [2] was inactive.
Take `COc1cc(OC)cc(C2C3=C(CN(C(C)C)C3=O)Nc3cc4c(cc32)OCO4)c1` (centres undefined): the result in experiment [1] and in experiment [2] was inactive.
With `COc1cc(OC)cc(C2C3=C(COC3=O)Nc3cc(Oc4ccccc4)ccc32)c1` (centres undefined), the result in experiment [1] and in experiment [2] was inactive.
Take `O=C1OC2(CCCCC2)C2=C1C(c1cccc(Cl)c1)c1cc3c(cc1N2)OCO3` (centres undefined): the outcome in experiment [1] and in experiment [2] was inactive.
Consider `COc1cc(OC)cc(C2C3=C(Nc4cc5c(cc42)OCO5)C(C)(C)ON(C)C3=O)c1` (centres undefined), for which the result in experiment [1] and in experiment [2] was inactive.
Turning to `COc1cc(OC)cc(C2C3=C(COC3=O)Nc3ccc(OC(C)C)cc32)c1` (centres undefined), the outcome in experiment [1] and in experiment [2] was inactive.
Turning to `O=C1OCC2=C1C(c1cccc(Cl)c1)c1cc3c(cc1O2)OCO3` (centres undefined), the outcome in experiment [1] and in experiment [2] was inactive.
`Clc1cccc(C2C3=C(CCCC3)Nc3cc4c(cc32)OCO4)c1` (centres undefined): the result in experiment [1] and in experiment [2] was inactive.
As for `COc1cc(OC)cc(C2C3=C(CCCC3=O)Nc3cc4c(cc32)OCO4)c1` (centres undefined), the result in experiment [1] and in experiment [2] was inactive.
For the compound `COc1cc(C2(C)C3=C(COC3=O)Nc3cc(Cl)ccc32)cc(OC)c1OC` (centres undefined), the result in experiment [1] and in experiment [2] was inactive.
`COc1ccc2c(c1)OC1=C(C(=O)OC1)C2c1cccc(Cl)c1` (centres undefined): the result in experiment [1] and in experiment [2] was inactive.
On to `COc1cc(OC)cc(C2C3=C(CN(C(=O)OC(C)(C)C)C3=O)Nc3cc4c(cc32)OCO4)c1` (centres undefined), for which the result in experiment [1] and in experiment [2] was inactive.
In the case of `COc1cc(C2C3=C(CN(C(=O)OC(C)(C)C)C3=O)Nc3cc4c(cc32)OCO4)cc(OC)c1OC` (centres undefined), the outcome in experiment [1] and in experiment [2] was inactive.
Turning to `COc1cc(OC)cc(C2C3=C(COC3=O)Nc3cc(OC)c(Cl)cc32)c1` (centres undefined), the result in experiment [1] and in experiment [2] was inactive.
Consider `COc1cccc(C2C3=C(COC3=O)Nc3cc4c(cc32)OCO4)c1OC` (centres undefined), for which the outcome in experiment [1] and in experiment [2] was inactive.
With `COc1cc(OC)cc(C2(C)C3=C(COC3=O)Nc3cc4c(cc32)OCO4)c1` (centres undefined), the result in experiment [1] and in experiment [2] was inactive.
For `COc1cc(OC)cc(C2C3=C(Nc4cc5c(cc42)OCO5)C(C)(C)NC3=O)c1` (centres undefined), the result in experiment [1] and in experiment [2] was inactive.
Consider `COc1cc(OC)cc(C2C3=C(COC3=O)Nc3cc(OC)c(OC)c(OC)c32)c1` (centres undefined), for which the result in experiment [1] and in experiment [2] was inactive.
Take `OC1=C2C(=Nc3cc4c(cc3C2c2ccccc2)OCO4)CO1` (centres undefined): in experiment [2], the outcome was inactive.
Consider `COc1cc2c(cc1OC)N(C)C1=C(C(=O)OC1)C2c1cc(OC)c(OC)c(OC)c1` (centres undefined), for which the outcome in experiment [1] and in experiment [2] was inactive.
`O=C1OCC2=C1C(c1ccc(Cl)cc1)c1cc3c(cc1N2)OCO3` (centres undefined): the outcome in experiment [1] and in experiment [2] was inactive.
Consider `COc1cc(OC)cc(C2C3=C(Nc4cc5c(cc42)OCO5)C(C)(CC(C)C)NC3=O)c1` (centres undefined), for which the outcome in experiment [1] and in experiment [2] was inactive.
`COc1cc(OC)cc(C2C3=C(COC3=O)Nc3cc(OC(F)F)c(OC(F)F)cc32)c1` (centres undefined): the outcome in experiment [1] and in experiment [2] was inactive.
Take `O=C1OCC2=C1C(c1cc(Cl)cc(Cl)c1)c1cc3c(cc1O2)OCO3` (centres undefined): the outcome in experiment [1] and in experiment [2] was inactive.
As to `O=C1OCC2=C1C(c1cccc(OCCO)c1)c1cc3c(cc1N2)OCO3` (centres undefined), in experiment [2], the result was inactive.
Consider `O=C1OCC2=C1C(c1ccc3c(c1)OC(F)(F)O3)c1cc3c(cc1N2)OCO3` (centres undefined), for which the outcome in experiment [1] and in experiment [2] was inactive.
For `O=C1OCC2=C1C(c1cccc(OC(F)(F)F)c1)c1cc3c(cc1O2)OCO3` (centres undefined), the result in experiment [1] and in experiment [2] was inactive.
Take `COc1cc(OC)cc(C2C3=C(Nc4cc5c(cc42)OCO5)C(C)(C)COC3=O)c1` (centres undefined): the outcome in experiment [1] and in experiment [2] was inactive.
As for `CC1(C)CS(=O)(=O)C2=C1Nc1cc3c(cc1C2c1cccc(Cl)c1)OCO3` (centres undefined), the result in experiment [1] and in experiment [2] was inactive.
Turning to `O=C1OCC2=C1C(c1cccc(Cl)c1)c1cc(Cl)ccc1N2` (centres undefined), the result in experiment [1] and in experiment [2] was inactive.
On to `COc1cc(OC)cc(C2C3=C(COC3=O)Nc3cc(OCc4ccccc4)c(Br)cc32)c1` (centres undefined), for which the outcome in experiment [1] and in experiment [2] was inactive.
With `O=S1(=O)CCC2=C1C(c1cccc(Cl)c1)c1cc3c(cc1N2)OCO3` (centres undefined), the outcome in experiment [1] and in experiment [2] was inactive.
For the compound `O=C1OCC2=C1C(c1cc(Cl)ccc1Cl)c1cc3c(cc1N2)OCO3` (centres undefined), the outcome in experiment [1] and in experiment [2] was inactive.
Consider `O=C1OCC2=C1C(c1cccc(OC(F)F)c1)c1cc3c(cc1O2)OCO3` (centres undefined), for which the outcome in experiment [1] and in experiment [2] was inactive.
Consider `COc1cc(OC)cc(C2C3=C(COC3=O)Nc3cc(C)cc(C)c32)c1` (centres undefined), for which the result in experiment [1] and in experiment [2] was inactive.
In the case of `CC1(C)CC(=O)C2=C(C1)Nc1cc3c(cc1C2c1cccc(Cl)c1)OCO3` (centres undefined), the result in experiment [1] and in experiment [2] was inactive.
On to `COc1ccc(C2C3=C(O)OCC3=Nc3cc4c(cc32)OCO4)cc1` (centres undefined), for which the outcome in experiment [1] and in experiment [2] was inactive.
